Each structure is given as a SMILES string. pIC50: −log10 of the molar value.

One may read the pIC50 as the negative decadic logarithm of the IC50, by convention in mol/L. Low values mean a large IC50, high ones a small IC50.

This test concerns Endogenous Huntingtin Protein. Description: Endogenous Huntingtin Protein Assay (MSD plates, MW1 or MAB2166 capture antibody). Format: cell-based. Particulars: Table 1. In a few lines:
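Endogenous huntingtin was captured overnight at 4° C on wells coated with 1 μg/mL MW1 (polyglutamine-specific) or MAB2166. Detection used rabbit #5656S and then goat anti-rabbit SULFO-TAG, both at 0.25 μg/mL and 1 h at room temperature. Plates were imaged on the MSD system in read buffer T.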
In turn, `C[C@@H]1C[C@@H](Oc2nc3sc(-c4ccc(-c5cn[nH]c5)c5cc[nH]c45)nc3s2)CCN1` [Compound 82, 7-(5-{[(2R,4S)-2-methylpiperidin-4-yl]oxy}[1,3]thiazolo[5,4-d][1,3]thiazol-2-yl)-4-(1H-pyrazol-4-yl)-1H-indole] showed a pIC50 not below 7.00.

`C[C@H]1C[C@@H](N(C)c2nc3sc(-c4ncc(-c5cnn(C)c5)c5cc[nH]c45)nc3s2)CCN1` [Compound 95, N-methyl-N-[(2S,4S)-2-methylpiperidin-4-yl]-5-[4-(1-methyl-1H-pyrazol-4-yl)-1H-pyrrolo[2,3-c]pyridin-7-yl][1,3]thiazolo[5,4-d][1,3]thiazol-2-amine] gave a pIC50 not below 7.00.

`CN(c1nc2sc(-c3ccc(-c4cn[nH]c4)c4cc[nH]c34)nc2s1)[C@@H]1C[C@H]2CC[C@@H](C1)N2` [Compound 183, N-[(1R,3s,5S)-8-azabicyclo[3.2.1]octan-3-yl]-N-methyl-5-[4-(1H-pyrazol-4-yl)-1H-indol-7-yl][1,3]thiazolo[5,4-d][1,3]thiazol-2-amine] gave a pIC50 not below 7.00.

Regarding `CN(c1nc2sc(-c3ccc(-c4cn[nH]c4)nn3)nc2s1)[C@@H]1C[C@H]2CC[C@@H](C1)N2` [Compound 168, N-[(1R,3s,5S)-8-azabicyclo[3.2.1]octan-3-yl]-N-methyl-5-[6-(1H-pyrazol-4-yl)pyridazin-3-yl][1,3]thiazolo[5,4-d][1,3]thiazol-2-amine], the negative-log IC50 (pIC50) is not below 7.00.

Take `Cn1cc2cc(-c3nc4sc(C5CCNCC5)nc4s3)ccc2n1` [Compound 25, 2-methyl-5-[5-(piperidin-4-yl)[1,3]thiazolo[5,4-d][1,3]thiazol-2-yl]-2H-indazole]: the pIC50 was 6.30 to 7.00.

Turning to `CN(c1nc2sc(-c3ncc(-c4ccn(C)c(=O)c4)cc3O)nc2s1)[C@@H]1C[C@H]2CC[C@@H](C1)N2` [Compound 191, 6-(5-{[(1R,3s,5S)-8-azabicyclo[3.2.1]octan-3-yl](methyl)amino}[1,3]thiazolo[5,4-d][1,3]thiazol-2-yl)-5-hydroxy-1′-methyl[3,4′-bipyridin]-2′(1′H)-one], the pIC50 is not below 7.00.

In turn, `CN(c1nc2sc(-n3cnc(-c4cn[nH]c4)c3)nc2s1)[C@@H]1C[C@H]2CC[C@@H](C1)N2` [Compound 170, N-[(1R,3s,5S)-8-azabicyclo[3.2.1]octan-3-yl]-N-methyl-5-[4-(1H-pyrazol-4-yl)-1H-imidazol-1-yl][1,3]thiazolo[5,4-d][1,3]thiazol-2-amine] gave a pIC50 of 6.30 to 7.00.

`CC1(C)CC(Oc2nc3sc(-c4cnc(-c5cn[nH]c5)cn4)nc3s2)CC(C)(C)N1` [Compound 143, 2-[5-(1H-pyrazol-4-yl)pyrazin-2-yl]-5-[(2,2,6,6-tetramethylpiperidin-4-yl)oxy][1,3]thiazolo[5,4-d][1,3]thiazole] gave a pIC50 not below 7.00.

The compound `CN(c1nc2sc(-c3ccc(-c4cn[nH]c4)nn3)nc2s1)C1CC(C)(C)NC(C)(C)C1` [Compound 167, N-methyl-5-[6-(1H-pyrazol-4-yl)pyridazin-3-yl]-N-(2,2,6,6-tetramethylpiperidin-4-yl)[1,3]thiazolo[5,4-d][1,3]thiazol-2-amine] gave a pIC50 of 6.30 to 7.00.

The compound `CN(c1nc2sc(-c3ncc(-n4cc(F)cn4)cc3O)nc2s1)[C@@H]1C[C@H]2CC[C@@H](C1)N2` [Compound 193, 2-(5-{[(1R,3s,5S)-8-azabicyclo[3.2.1]octan-3-yl](methyl)amino}[1,3]thiazolo[5,4-d][1,3]thiazol-2-yl)-5-(4-fluoro-1H-pyrazol-1-yl)pyridin-3-ol] showed a negative-log IC50 (pIC50) not below 7.00.

As for `CN(c1nc2sc(-c3ncc(-c4cn[nH]c4)c4cc[nH]c34)nc2s1)[C@H]1C[C@]2(C)CC[C@](C)(C1)N2` [Compound 154, N-[(1R,3s,5S)-1,5-dimethyl-8-azabicyclo[3.2.1]octan-3-yl]-N-methyl-5-[4-(1H-pyrazol-4-yl)-1H-pyrrolo[2,3-c]pyridin-7-yl][1,3]thiazolo[5,4-d][1,3]thiazol-2-amine], the pIC50 was not below 7.00.

`CN(c1nc2sc(-c3ncc(Br)n4ccnc34)nc2s1)C1CCNCC1` [Compound 117, 5-(5-bromoimidazo[1,2-a]pyrazin-8-yl)-N-methyl-N-(piperidin-4-yl)[1,3]thiazolo[5,4-d][1,3]thiazol-2-amine] showed a pIC50 of 5.52 to 6.00.

Regarding `CN(c1nc2sc(-c3cnc(-c4cn[nH]c4)nc3)nc2s1)[C@@H]1C[C@H]2CC[C@@H](C1)N2` [Compound 175, N-[(1R,3s,5S)-8-azabicyclo[3.2.1]octan-3-yl]-N-methyl-5-[2-(1H-pyrazol-4-yl)pyrimidin-5-yl][1,3]thiazolo[5,4-d][1,3]thiazol-2-amine], the pIC50 is not below 7.00.

In turn, `COc1cc(-c2nc3sc(C4CCNCC4)nc3s2)cc2cn(C)nc12` [Compound 26, 7-methoxy-2-methyl-5-[5-(piperidin-4-yl)[1,3]thiazolo[5,4-d][1,3]thiazol-2-yl]-2H-indazole] gave a pIC50 not below 7.00.

In the case of `CN1C2CCC1CC(Nc1nn3cc(-c4ccc(-c5cn[nH]c5)cc4O)nc3s1)C2` (stereo not drawn) [Compound 19, 2-(2-{[(3-exo)-8-methyl-8-azabicyclo[3.2.1]oct-3-yl]amino]imidazo[2,1-b][1,3,4]thiadiazol-6-yl)-5-(1H-pyrazol-4-yl)phenol], the pIC50 is 6.30 to 7.00.

For `CC1CC(N(C)c2nc3sc(-c4ncc(Br)c5cc[nH]c45)nc3s2)CCN1C` (stereo not shown) [Compound 124, 5-(4-bromo-1H-pyrrolo[2,3-c]pyridin-7-yl)-N-(1,2-dimethylpiperidin-4-yl)-N-methyl[1,3]thiazolo[5,4-d][1,3]thiazol-2-amine], the pIC50 is 6.30 to 7.00.

Compound `CN(c1nc2sc(-c3cnc(-c4cn[nH]c4)cn3)nc2s1)C1CC(C)(C)NC(C)(C)C1` [Compound 163, N-methyl-5-[5-(1H-pyrazol-4-yl)pyrazin-2-yl]-N-(2,2,6,6-tetramethylpiperidin-4-yl)[1,3]thiazolo[5,4-d][1,3]thiazol-2-amine] showed a pIC50 not below 7.00.

Turning to `CN1CCC(N(C)c2nc3sc(-c4ccc(-c5cn[nH]c5)cc4O)nc3s2)CC1` [Compound 24, 2-{5-[methyl(1-methylpiperidin-4-yl)amino][1,3]thiazolo[5,4-d][1,3]thiazol-2-yl}-5-(1H-pyrazol-4-yl)phenol], the negative-log IC50 (pIC50) is not below 7.00.

Consider `CN(c1nc2sc(-c3ncc(-c4cncs4)cc3O)nc2s1)C1CCNCC1` [Compound 64, 5-(thiazol-5-yl)-2-{5-[methyl(piperidin-4-yl)amino][1,3]thiazolo[5,4-d][1,3]thiazol-2-yl}pyridin-3-ol], for which the pIC50 is 6.30 to 7.00.

The compound `CN(c1nc2sc(-c3ncc(-c4cn[nH]c4)cn3)nc2s1)[C@@H]1C[C@H]2CC[C@@H](C1)N2` [Compound 194, N-[(1R,3s,5S)-8-azabicyclo[3.2.1]octan-3-yl]-N-methyl-5-[5-(1H-pyrazol-4-yl)pyrimidin-2-yl][1,3]thiazolo[5,4-d][1,3]thiazol-2-amine] had a negative-log IC50 (pIC50) not below 7.00.

For the compound `C[C@@H]1C[C@@H](N(C)c2nc3sc(-c4cnc(-c5cn[nH]c5)cn4)nc3s2)CCN1` [Compound 93, N-methyl-N-[(2R,4S)-2-methylpiperidin-4-yl]-5-[5-(1H-pyrazol-4-yl)pyrazin-2-yl][1,3]thiazolo[5,4-d][1,3]thiazol-2-amine], the pIC50 was not below 7.00.

As for `CN1CCCC2(CCN2c2nc3sc(-c4ncc(-c5cn[nH]c5)c5cc[nH]c45)nc3s2)C1` (stereo not shown) [Compound 96, 7-[5-(6-methyl-1,6-diazaspiro[3.5]nonan-1-yl)[1,3]thiazolo[5,4-d][1,3]thiazol-2-yl]-4-(1H-pyrazol-4-yl)-1H-pyrrolo[2,3-c]pyridine], the pIC50 is not below 7.00.

These data come from patent US11685746B2, “Heteroaryl compounds for treating Huntington's disease” (PTC THERAPEUTICS, INC., priority 2018, dated 2023).
